According to patent US12257243B2, “5-hydroxy-7-oxabicyclo[2.2.1]heptane-2-carboxamide derivatives for inducing chondrogenesis for treating joint damage” (NOVARTIS AG, priority 2018, dated 2025):
Where two headings read alike, the source gives them in different places.

Molecular target: ALP in normal human articular chondrocytes (NHACs)
Assay: Alkaline Phosphatase (ALP) activity assay (staining and quantitation) in NHACs, prevention of chondrocyte hypertrophy
Type: cell-based
Conditions: human IL-1 beta 10 ng/mL, 12 days; for IC50: Fast Blue RR staining, high content imaging, read-out: ALP in NHAC IC50; for ALP in NHAC (% Efficacy) / Emax: value in parentheses; for Emax: read-out: ALP in NHAC (% Efficacy)
In short: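 Primary human articular chondrocytes plated at 7,500 cells/well in DMEM with 10% FBS alongside test compound, incubated 5 h at 37 °C, then given IL-1β (10 ng/mL final) for 12 days. Fixed cells stained for ALP with Fast Blue RR/naphthol AS-MX, Hoechst counterstain. Read by fluorescence imaging (561 nm) and/or high-content cell scoring.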

SMILES	IC50 [µM]	ALP in NHAC (% Efficacy) [%]	IC50 (Chondrocyte, 288 h) [µM]	Emax (Chondrocyte, 288 h) [%]
Cn1nc(C(F)(F)F)cc1[C@H]1[C@H]2O[C@H](C[C@@H]2O)[C@@H]1C(=O)Nc1cc(C(F)(F)F)ccc1C#N (single isomer, unassigned) [Example 72a, (1R,2R,3S,4R,5S)—N-(2-cyano-5-(trifluoromethyl)phenyl)-5-hydroxy-3-(1-methyl-3-(trifluoromethyl)-1H-pyrazol-5-yl)-7-oxabicyclo[2.2.1]heptane-2-carboxamide or (1S,2S,3R,4S,5R)—N-(2-cyano-5-(trifluoromethyl)phenyl)-5-hydroxy-3-(1-methyl-3-(trifluoromethyl)-1-pyrazol-5-yl)-7-oxabicyclo[2.2.1]heptane-2-carboxamide]	3.1	107	–	–
Cc1ccc(NC(=O)[C@@H]2[C@@H](c3ccnc(C(F)(F)F)c3)[C@H]3O[C@@H]2C[C@@H]3O)cc1C(F)(F)F (racemic) [Example 64, rac-(1R,2R,3S,4R,5S)-5-hydroxy-N-(4-methy-3-(trifluoromethyl)phenyl-3-(2-(trifluoromethyl)pyridin-4-yl)-7-oxabicyclo[2.2.1]heptane-2-carboxamide]	–	–	13	83
O=C(Nc1cc(C(F)(F)F)cc(C2CC2)n1)[C@@H]1[C@@H](c2cccc(C(F)(F)F)c2)[C@H]2O[C@@H]1C[C@@H]2O (racemic) [Example 7, rac-(1R,2R,3S,4R 5S)—N-(6-cyclopropyl-4-(trifluoromethyl)pyridin-2-yl)-5-hydroxy-3-(3-(trifluoromethyl)phenyl)-7-oxabicyclo[2.2.1]heptane-2-carboxamide]	–	–	> 30	12
COc1cc([C@@H]2[C@@H]3O[C@@H](C[C@H]3O)[C@H]2C(=O)Nc2cc(C(F)(F)F)ccc2C#N)ccn1 (single isomer, unassigned) [Example 78b, (1R,2R,3S,4R,5)-N-(2-cyano-5-(trifluoromethyl)phenyl)-5-hydroxy-3-(2-methoxypyridin-4-yl)-7-oxabicyclo[2.2.1]heptane-2-carboxamide or (1S,2S,3R,4S,5R)—N-(2-cyano-5-(trifluoromethyl)phenyl)-5-hydroxy-3-(2-methoxypyridin-4-yl)-7-oxabicyclo[2.2.1]heptane-2-carboxamide]	1.4	88	–	–
Cc1cc(C(F)(F)F)cc(NC(=O)[C@@H]2[C@@H](c3cccc(C(F)(F)F)c3)[C@H]3O[C@@H]2C[C@@H]3O)n1 (racemic) [Example 8, rac-(1R,2R,3S,4R,5S)-5-hydroxy-N-(6-methyl-4-(trifluoromethyl)pyridin-2-yl)-3-(3-(trifluoromethyl)phenyl)-7-oxabicyclo[2.2.1]heptane-2-carboxamide]	–	–	17	100
Cc1cc(NC(=O)[C@@H]2[C@@H](c3cn(C(C)C)nc3C(F)(F)F)[C@H]3O[C@@H]2C[C@@H]3O)cc(C(F)(F)F)c1 (racemic) [Example 88, rac-(1R,2R,3S,4R,5S)-5-hydroxy-3-(1-isopropyl-3-(trifluoromethyl)-1H-pyrazol-4-yl)-N-(3-methyl-5-(trifluoromethyl)phenyl)-7-oxabicyclo[2.2.1]heptane-2-carboxamide]	–	–	> 30	20
O=C(Nc1ccc(C(F)(F)F)c(F)c1)[C@@H]1[C@@H](c2cccc(C(F)(F)F)c2)[C@H]2O[C@@H]1C[C@@H]2O (racemic) [Example 3, rac-(1R,2R,3S,4R,5S)—N-(3-fluoro-4-(trifluoromethyl)phenyl)-5-hydroxy-3-(3-(trifluoromethyl)phenyl)-7-oxabicyclo[2.2.1]heptane-2-carboxamide]	–	–	12	77
Cn1cc([C@H]2[C@H]3O[C@H](C[C@@H]3O)[C@@H]2C(=O)Nc2cccc(C(F)(F)F)c2)c(C(F)(F)F)n1 (single isomer, unassigned) [Example 32a, (1R,2R,3S,4R,5S)-5-hydroxy-3-(1-methyl-3-(trifluoromethyl)-1H-pyrazol-4-yl)-N-(3-(trifluoromethyl)phenyl)-7-oxabicyclo[2.2.1]heptane-2-carboxamide or (1S,2S,3R,4S,5R)-5-hydroxy-3-(1-methyl-3-(trifluoromethyl)-1H-pyrazol-4-yl)-N-(3-(trifluoromethyl)phenyl)-7-oxabicyclo[2.2.1]heptane-2-carboxamide]	6.6	87	–	–
Cc1cc(NC(=O)[C@@H]2[C@@H](c3ccnc(C(F)(F)F)c3)[C@H]3O[C@@H]2C[C@@H]3O)cc(C(F)(F)F)c1 (racemic) [Example 65, rac-(1R,2R,3S,4R,5S)-5-hydroxy-N-(3-methyl-5-(trifluoromethyl)phenyl)-3-(2-(trifluoromethyl)pyridin-4-yl)-7-oxabicyclo[2.2.1]heptane-2-carboxamide]	–	–	20	57
COc1cc([C@H]2[C@H]3O[C@H](C[C@@H]3O)[C@@H]2C(=O)Nc2cc(C)cc(C(F)(F)F)c2)ccn1 (racemic) [Example 69, rac-(1R,2R,3S,4R,5S)-5-hydroxy-3-(2-methoxypyridin-4-yl)-N-(3-methyl-5-(trifluoromethylphenyl)-7-oxabicyclo[2.2.1]heptane-2-carboxamide]	–	–	25	29
CC(C)n1cc([C@H]2[C@H]3O[C@H](C[C@@H]3O)[C@@H]2C(=O)Nc2cccc(C(F)(F)F)c2)c(C(F)(F)F)n1 (racemic) [Example 59, rac-(1R,2R,3S,4R,5S)-5-hydroxy-3-(1-isopropyl-3-(trifluoromethyl)-1H-pyrazol-4-yl)-N-(3-(trifluoromethyl)phenyl)-7-oxabicyclo[2.2.1]heptane-2-carboxamide]	–	–	14	70
N#Cc1ccc(C(F)(F)F)cc1NC(=O)[C@@H]1[C@@H](c2cccc(C(F)(F)F)c2)[C@H]2O[C@@H]1C[C@@H]2O (single isomer, unassigned) [Example 48b, (1R,2R,3S,4R,5S)—N-(2-cyano-5-(trifluoromethyl)phenyl)-5-hydroxy-3-(3-(trifluoromethyl)phenyl)-7-oxabicyclo[2.2.1]heptane-2-carboxamide or (1S,2S,3R,4S,5R)—N-(2-cyano-5-(trifluoromethyl)phenyl)-5-hydroxy-3-(3-(trifluoromethyl)phenyl)-7-oxabicyclo[2.2.1]heptane-2-carboxamide]	1.9	98	–	–
COc1ccc(C(F)(F)F)cc1NC(=O)[C@H]1[C@H](c2cn(C)nc2C(F)(F)F)[C@@H]2O[C@H]1C[C@H]2O (single isomer, unassigned) [Example 33a, (1R,2R,3S,4R,5S)-5-hydroxy-N-(2-methoxy-5-trifluoromethyl)phenyl)-3-(1-methyl-3-(trifluoromethyl)-1H-pyrazol-4-L)-7-oxabicyclo[2.2.1]heptane-2-carboxamide or (1S,2S,3R,4S,5R)-5-hydroxy-N-(2-methoxy-5-(trifluoromethyl)phenyl)-3-(1-methyl-3-(trifluoromethyl)-1H-pyrazol-4-L)-7-oxabicyclo[2.2.1]heptane-2-carboxamide]	6.6	79	–	–
CC(C)n1cc([C@H]2[C@H]3O[C@H](C[C@@H]3O)[C@@H]2C(=O)Nc2ccc(C(F)(F)F)c(Cl)c2)c(C(F)(F)F)n1 (racemic) [Example 87, rac-(1R,2R,3S,4R,5S)—N-(3-chloro-4-trifluoromethyl)phenyl)-5-hydroxy-3-(1-isopropyl-3-(trifluoromethyl)-1H-pyrazol-4-yl)-7-oxabicyclo[2.2.1]heptane-2-carboxamide]	–	–	14	64
Cc1c(NC(=O)[C@@H]2[C@@H](c3cn(C)nc3C(F)(F)F)[C@H]3O[C@@H]2C[C@@H]3O)cccc1C(F)(F)F (racemic) [Example 42, rac-(1R,2R,3S,4R,5S)-5-hydroxy-3-(1-methyl-3-(trifluoromethyl)-1H-pyrazol-4-yl)-N-(2-methyl-3-(trifluoromethyl)phenyl)-7-oxabicyclo[2.2.1]heptane-2-carboxamide]	–	–	> 30	21
Cn1cc([C@H]2[C@H]3O[C@H](C[C@@H]3O)[C@@H]2C(=O)Nc2cc(C(F)(F)F)cc(C3CC3)n2)c(C(F)(F)F)n1 (racemic) [Example 40, rac-(1R,2R,3S,4R,5S)—N-(6-cyclopropyl-4-(trifluoromethyl)pyridin-2-yl)-5-hydroxy-3-(1-methyl-3-(trifluoromethyl)-1H-pyrazol-4-yl)-7-oxabicyclo[2.2.1]heptane-2-carboxamide]	–	–	10	83
COc1ccc(C(F)(F)F)cc1NC(=O)[C@@H]1[C@@H](c2cn(C)nc2C(F)(F)F)[C@H]2O[C@@H]1C[C@@H]2O (racemic) [Example 33, rac-(1R,2R,3S,4R,5)-5-hydroxy-N-(2-methoxy-5-(trifluoromethyl)phenyl)-3-(1-methyl-3-(trifluoromethyl)-1H-pyrazol-4-yl)-7-oxabicyclo[2.2.1]heptane-2-carboxamide]	–	–	2.8	74
Cn1cc([C@H]2[C@H]3O[C@H](C[C@@H]3O)[C@@H]2C(=O)Nc2cc(C(F)(F)F)ccc2C#N)c(C(F)(F)F)n1 (racemic) [Example 49, rac-(1R,2R,3S,4R,5S)—N-(2-cyano-5-(trifluoromethyl)phenyl)-5-hydroxy-3-(1-methyl-3-(trifluoromethyl)-1H-pyrazol-4-yl)-7-oxabicyclo[2.2.1]heptane-2-carboxamide]	–	–	0.53	96
COc1cc([C@H]2[C@H]3O[C@H](C[C@@H]3O)[C@@H]2C(=O)Nc2cc(C(F)(F)F)ccc2C#N)ccn1 (racemic) [Example 78, rac-(1R,2R,3S,4R,5)-N-(2-cyano-5-trifluoromethyl)phenyl)-5-hydroxy-3-(2-methoxypyridin-4-yl)-7-oxabicyclo[2.2.1]heptane-2-carboxamide]	–	–	0.055	74
